Data on 50 compounds can be found in patent publication US7297700B2, “Bicycloheteroaryl compounds as P2X7 modulators and uses thereof” (Renovis, Inc., priority 2005, dated 2007).

The subject of one assay is IL-1β release from THP-1 cells. As to the kind of experiment: IL-1β Release Assay (Alternate Method), THP-1 cells. It counts as cell-based, human. To be noted: Homo sapiens; at 0.3 μM; THP-1 cells; read-out: IL-1β % inhibition. The procedure, abridged:
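THP-1 cells differentiated 16 h with 100 ng/mL LPS plus 100 ng/mL IFN-γ, reprimed 2 h with 100 ng/mL LPS, pretreated 30 min with compound, then challenged 45 min with 250 uM BzATP (final). Supernatant IL-1β quantified by ELISA; percent inhibition from background-adjusted levels versus untreated cells.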
Regarding `O=C(c1ccccc1)N1CCc2c(ncnc2NC(=O)C23CC4CC(CC(C4)C2)C3)C1` [Compound 394], the inhibition at 0.3 µM lay in the range of 25 to 50%.

In the case of `CC12CC3CC(C)(C1)CC(CC(=O)Nc1ncnc4c1CCN(Cc1ccccc1)C4)(C3)C2` [Compound 341, N-(7-Benzyl-5,6,7,8-tetrahydro-pyrido[3,4-d]pyrimidin-4-yl)-2-(3,5-dimethyl-adamantan-1-yl)-acetamide], the inhibition at 0.3 µM was in the range of 25 to 50%.

`O=C(CC12CC3CC(CC(C3)C1)C2)Nc1ncnc2c1CCNC2` [Compound 6, 2-Adamantan-1-yl-N-(5,6,7,8-tetrahydro-pyrido[3,4-d]pyrimidin-4-yl)-acetamide]: the inhibition at 0.3 µM lay in the range of 0 to 25%.

Still in this assay, the particulars now being: at 0.3 μM; THP-1 cells.
With `CC(C)(C(=O)Nc1ncnc2c1CCN(Cc1ccc3c(c1)OCCO3)C2)C12CC3CC(CC(C3)C1)C2` [Compound 350], the IL-1β % inhibition result was “+ (compound exhibited 0-25% inhibition at 0.3 μM)”.

Consider `COc1ccc(C(=O)N2CCc3c(ncnc3NC(=O)CC34CC5CC(CC(C5)C3)C4)C2)cc1OC` [Compound 312], for which the IL-1β % inhibition result is recorded as “+ (compound exhibited 0-25% inhibition at 0.3 μM)”.

Regarding `O=C(CC12CC3CC(CC(C3)C1)C2)Nc1ncnc2c1CCN(CC1CCCC1)C2` [Compound 121], the IL-1β % inhibition entry was “+ (compound exhibited 0-25% inhibition at 0.3 μM)”.

With `COc1cc(CN2CCc3c(ncnc3NC(=O)CC34CC5CC(CC(C5)C3)C4)C2)ccc1F` [Compound 103], the IL-1β % inhibition result is reported as “+ (compound exhibited 0-25% inhibition at 0.3 μM)”.

As to `O=C(CC12CC3CC(CC(C3)C1)C2)Nc1ncnc2c1CCN(C(=O)c1cc(F)cc(C(F)(F)F)c1)C2` [Compound 267], the IL-1β % inhibition result is listed as “++ (compound exhibited 25-50% inhibition at 0.3 μM)”.

As to `O=C(CC12CC3CC(CC(C3)C1)C2)Nc1ncnc2c1CCN(Cc1c(F)cccc1C(F)(F)F)C2` [Compound 111], the IL-1β % inhibition result is “++ (compound exhibited 25-50% inhibition at 0.3 μM)”.

Consider `CC(C)(C)CC(=O)N1CCc2c(ncnc2NC(=O)CC23CC4CC(CC(C4)C2)C3)C1` [Compound 262], for which the IL-1β % inhibition entry was “+ (compound exhibited 0-25% inhibition at 0.3 μM)”.

`O=C(CC12CC3CC(CC(C3)C1)C2)Nc1ncnc2c1CCN(Cc1ccnc3ccccc13)C2` [Compound 69]: the IL-1β % inhibition entry was “+ (compound exhibited 0-25% inhibition at 0.3 μM)”.

On to `CN1CCc2c(ncnc2NC(=O)CC23CC4CC(CC(C4)C2)C3)C1` [Compound 7], for which the IL-1β % inhibition result is listed as “+ (compound exhibited 0-25% inhibition at 0.3 μM)”.

As for `CC(C)(C)c1ccc(CN2CCc3c(ncnc3NC(=O)CC34CC5CC(CC(C5)C3)C4)C2)cc1` [Compound 71], the IL-1β % inhibition result was “+ (compound exhibited 0-25% inhibition at 0.3 μM)”.

For the compound `CC(C)(C(=O)Nc1ncnc2c1CCN(S(=O)(=O)c1cccc(Cl)c1)C2)C12CC3CC(CC(C3)C1)C2` [Compound 354], the IL-1β % inhibition entry is reported as “+ (compound exhibited 0-25% inhibition at 0.3 μM)”.

Turning to `COc1ccccc1CCC(=O)Nc1ncnc2c1CCN(Cc1c[nH]cn1)C2` [Compound 135], the IL-1β % inhibition result is recorded as “+ (compound exhibited 0-25% inhibition at 0.3 μM)”.

For `Cc1ccc(F)c(CN2CCc3c(ncnc3NC(=O)CC34CC5CC(CC(C5)C3)C4)C2)c1Cl` [Compound 88], the IL-1β % inhibition result was “+++ (compound exhibited 50-75% inhibition at 0.3 μM)”.

As to `Cc1ccc(CN2CCc3c(ncnc3NC(=O)CC34CC5CC(CC(C5)C3)C4)C2)c2ccccc12` [Compound 112], the IL-1β % inhibition entry is “+ (compound exhibited 0-25% inhibition at 0.3 μM)”.

Turning to `O=C(CC1CCCCC1)Nc1ncnc2c1CCNC2` [Compound 11], the IL-1β % inhibition entry is “+ (compound exhibited 0-25% inhibition at 0.3 μM)”.

For the compound `O=C(CC12CC3CC(CC(C3)C1)C2)Nc1ncnc2c1CCN(Cc1cccc(Oc3ccccc3)c1)C2` [Compound 68], the IL-1β % inhibition entry is recorded as “+ (compound exhibited 0-25% inhibition at 0.3 μM)”.

For the compound `O=C(CC12CC3CC(CC(C3)C1)C2)Nc1ncnc2c1CCN(S(=O)(=O)c1ccc3c(c1)OCCO3)C2` [Compound 200], the IL-1β % inhibition result was “+ (compound exhibited 0-25% inhibition at 0.3 μM)”.

As to `CC(C)(C(=O)Nc1ncnc2c1CCN(C(=O)C1CCCCC1)C2)C12CC3CC(CC(C3)C1)C2` [Compound 366], the IL-1β % inhibition result is “+ (compound exhibited 0-25% inhibition at 0.3 μM)”.

Regarding `CC(=O)N1CCC(C(=O)N2CCc3c(ncnc3NC(=O)CC34CC5CC(CC(C5)C3)C4)C2)CC1` [Compound 295], the IL-1β % inhibition result is given as “+ (compound exhibited 0-25% inhibition at 0.3 μM)”.

Consider `O=C(NCC1CCCCC1)c1ncnc2c1CCN(Cc1cccnc1)C2` [Compound 48], for which the IL-1β % inhibition entry is reported as “+ (compound exhibited 0-25% inhibition at 0.3 μM)”.

Turning to `Cc1ccccc1C(=O)N1CCc2c(ncnc2NC(=O)CC23CC4CC(CC(C4)C2)C3)C1` [Compound 278], the IL-1β % inhibition entry is “+++ (compound exhibited 50-75% inhibition at 0.3 μM)”.

With `N#Cc1ccc(CN2CCc3c(ncnc3NC(=O)CC34CC5CC(CC(C5)C3)C4)C2)cc1` [Compound 42], the IL-1β % inhibition entry is given as “+ (compound exhibited 0-25% inhibition at 0.3 μM)”.

Regarding `N#Cc1cccc(C(=O)N2CCc3c(ncnc3NC(=O)CC34CC5CC(CC(C5)C3)C4)C2)c1` [Compound 242], the IL-1β % inhibition entry was “+++ (compound exhibited 50-75% inhibition at 0.3 μM)”.

In the case of `O=C(Cc1ccccc1)N1CCc2c(ncnc2NC(=O)C23CC4CC(CC(C4)C2)C3)C1` [Compound 398], the IL-1β % inhibition result is “+++ (compound exhibited 50-75% inhibition at 0.3 μM)”.

With `COc1cc(CN2CCc3c(ncnc3NC(=O)CC34CC5CC(CC(C5)C3)C4)C2)cc(OC)c1` [Compound 37], the IL-1β % inhibition result was “+ (compound exhibited 0-25% inhibition at 0.3 μM)”.

On to `CC12CC3CC(C)(C1)CC(CC(=O)Nc1ncnc4c1CCN(C(=O)c1cc(F)ccc1F)C4)(C3)C2` [Compound 390], for which the IL-1β % inhibition result is given as “+ (compound exhibited 0-25% inhibition at 0.3 μM)”.

As for `O=C(CC12CC3CC(CC(C3)C1)C2)Nc1ncnc2c1CCN(S(=O)(=O)c1cc(Cl)ccc1F)C2` [Compound 205], the IL-1β % inhibition entry is reported as “+ (compound exhibited 0-25% inhibition at 0.3 μM)”.

`O=C(CC1CCCCCC1)Nc1ncnc2c1CCN(Cc1ccc(F)cc1)C2` [Compound 130]: the IL-1β % inhibition result was “+ (compound exhibited 0-25% inhibition at 0.3 μM)”.

For the compound `CC(C)(C)c1ccc(C(=O)N2CCc3c(ncnc3NC(=O)CC34CC5CC(CC(C5)C3)C4)C2)cc1` [Compound 301], the IL-1β % inhibition result is “++++ (compound exhibited 75% or greater inhibition at 0.3 μM)”.

With `COCCC(=O)N1CCc2c(ncnc2NC(=O)CC23CC4CC(CC(C4)C2)C3)C1` [Compound 307], the IL-1β % inhibition result is “++ (compound exhibited 25-50% inhibition at 0.3 μM)”.

Turning to `O=C(CC12CC3CC(CC(C3)C1)C2)Nc1ncnc2c1CCN(Cc1cc(F)cc(C(F)(F)F)c1)C2` [Compound 108], the IL-1β % inhibition result is recorded as “+ (compound exhibited 0-25% inhibition at 0.3 μM)”.

The assay is the same for the next values; noted with them: at 0.3 μM; THP-1 cells, BzATP-stimulated.
On to `O=C(Nc1ncnc2c1CCN(S(=O)(=O)Cc1ccccc1)C2)C12CC3CC(CC(C3)C1)C2` [Compound 491], for which the IL-1β % inhibition result was “+ (compound exhibited 0-25% inhibition at 0.3 μM)”.

`Cc1cccc(CN2CCc3c(ncnc3NC(=O)C34CC5CC(CC(C5)C3)C4)C2)c1` [Compound 606]: the IL-1β % inhibition result is on record as “+ (compound exhibited 0-25% inhibition at 0.3 μM)”.

Take `COc1cc(CN2CCc3c(ncnc3NC(=O)C34CC5CC(CC(C5)C3)C4)C2)ccc1OCc1ccccc1` [Compound 588]: the IL-1β % inhibition result was “++ (compound exhibited 25-50% inhibition at 0.3 μM)”.

On to `O=C(Nc1ncnc2c1CCN(CC(c1ccccc1)c1ccccc1)C2)C12CC3CC(CC(C3)C1)C2` [Compound 553], for which the IL-1β % inhibition entry is given as “++ (compound exhibited 25-50% inhibition at 0.3 μM)”.

`O=C(Nc1ncnc2c1CCN(S(=O)(=O)c1ccc(F)cc1F)C2)C12CC3CC(CC(C3)C1)C2` [Compound 543]: the IL-1β % inhibition entry is listed as “++ (compound exhibited 25-50% inhibition at 0.3 μM)”.

Consider `O=C(Nc1ncnc2c1CCN(Cc1cccc(Oc3cccc(C(F)(F)F)c3)c1)C2)C12CC3CC(CC(C3)C1)C2` [Compound 626], for which the IL-1β % inhibition entry is on record as “++ (compound exhibited 25-50% inhibition at 0.3 μM)”.

In the case of `O=C(Nc1ncnc2c1CCN(Cc1cccc(Br)c1)C2)C12CC3CC(CC(C3)C1)C2` [Compound 614], the IL-1β % inhibition entry is on record as “+ (compound exhibited 0-25% inhibition at 0.3 μM)”.

As for `CN1CCOc2cc(S(=O)(=O)N3CCc4c(ncnc4NC(=O)C45CC6CC(CC(C6)C4)C5)C3)ccc21` [Compound 494], the IL-1β % inhibition entry is listed as “+++ (compound exhibited 50-75% inhibition at 0.3 μM)”.

`Cc1ccc(S(=O)(=O)N2CCc3c(ncnc3NC(=O)C34CC5CC(CC(C5)C3)C4)C2)cc1` [Compound 482]: the IL-1β % inhibition result is listed as “++ (compound exhibited 25-50% inhibition at 0.3 μM)”.

As to `O=C(c1ccccc1C(F)(F)F)N1CCc2c(ncnc2NC(=O)C23CC4CC(CC(C4)C2)C3)C1` [Compound 442], the IL-1β % inhibition result is on record as “++ (compound exhibited 25-50% inhibition at 0.3 μM)”.

Consider `O=C(Nc1ncnc2c1CCN(S(=O)(=O)Cc1ccc(Cl)c(Cl)c1)C2)C12CC3CC(CC(C3)C1)C2` [Compound 518], for which the IL-1β % inhibition entry is listed as “++++ (compound exhibited 75% or greater inhibition at 0.3 μM)”.

In the case of `O=C(Nc1ncnc2c1CCN(S(=O)(=O)c1ccc3oc(=O)ccc3c1)C2)C12CC3CC(CC(C3)C1)C2` [Compound 505], the IL-1β % inhibition result is “+ (compound exhibited 0-25% inhibition at 0.3 μM)”.

`O=C(Nc1ncnc2c1CCN(Cc1ccc(Cl)c(Cl)c1)C2)C12CC3CC(CC(C3)C1)C2` [Compound 590]: the IL-1β % inhibition entry was “+ (compound exhibited 0-25% inhibition at 0.3 μM)”.

For the compound `O=C(Nc1ncnc2c1CCN(CCCc1ccccc1)C2)C12CC3CC(CC(C3)C1)C2` [Compound 559], the IL-1β % inhibition entry is “++ (compound exhibited 25-50% inhibition at 0.3 μM)”.

Regarding `Cc1ccc(S(=O)(=O)N2CCc3c(ncnc3NC(=O)C34CC5CC(CC(C5)C3)C4)C2)cc1Cl` [Compound 541], the IL-1β % inhibition result was “++++ (compound exhibited 75% or greater inhibition at 0.3 μM)”.

As to `CCS(=O)(=O)N1CCc2c(ncnc2NC(=O)C23CC4CC(CC(C4)C2)C3)C1` [Compound 486], the IL-1β % inhibition result is listed as “+ (compound exhibited 0-25% inhibition at 0.3 μM)”.

By inhibition is commonly meant the percentage by which the read-out fell short of the control.
